What was measured:
[1] = target: T1, ALK (Homo sapiens, UniProt Q9UM73); experiment: ALK Kinase Assay (ELISA/TRF, PLC-γ substrate); type: biochemical; settings: ALK Kinase Inhibition; read-out: ALK Potency
T1 construct: host or cells: baculovirus expression system
Outline: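 Read-out is time-resolved fluorescence from a Eu-N1-labeled PT66 antibody that binds phosphorylated PLC-γ, the substrate coated at 10 μg/mL in TBS. ALK at 30 ng/ml starts the reaction, which runs 15 minutes at 37° C.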

[2] = target: T2, JAK2 (Homo sapiens, UniProt O60674); experiment: Recombinant Human JAK2 Kinase Assay (TRF); type: biochemical; settings: JAK2 Kinase Inhibition; read-out: JAK2 Potency
T2 construct: host or cells: baculovirus expression system
Outline: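 Europium-labelled PY100 antibody reported tyrosine phosphorylation of a Neutravidin-captured biotinyl 15-mer peptide by JAK2 (baculovirus-expressed, 15 ng/ml). Conditions: 20 mM HEPES pH 7.2, 0.2 μM ATP, 1 mM MnCl2, 0.1% BSA, DMSO 2.5% final, 20 min at room temperature.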

T2 sequence (O60674 whole entry): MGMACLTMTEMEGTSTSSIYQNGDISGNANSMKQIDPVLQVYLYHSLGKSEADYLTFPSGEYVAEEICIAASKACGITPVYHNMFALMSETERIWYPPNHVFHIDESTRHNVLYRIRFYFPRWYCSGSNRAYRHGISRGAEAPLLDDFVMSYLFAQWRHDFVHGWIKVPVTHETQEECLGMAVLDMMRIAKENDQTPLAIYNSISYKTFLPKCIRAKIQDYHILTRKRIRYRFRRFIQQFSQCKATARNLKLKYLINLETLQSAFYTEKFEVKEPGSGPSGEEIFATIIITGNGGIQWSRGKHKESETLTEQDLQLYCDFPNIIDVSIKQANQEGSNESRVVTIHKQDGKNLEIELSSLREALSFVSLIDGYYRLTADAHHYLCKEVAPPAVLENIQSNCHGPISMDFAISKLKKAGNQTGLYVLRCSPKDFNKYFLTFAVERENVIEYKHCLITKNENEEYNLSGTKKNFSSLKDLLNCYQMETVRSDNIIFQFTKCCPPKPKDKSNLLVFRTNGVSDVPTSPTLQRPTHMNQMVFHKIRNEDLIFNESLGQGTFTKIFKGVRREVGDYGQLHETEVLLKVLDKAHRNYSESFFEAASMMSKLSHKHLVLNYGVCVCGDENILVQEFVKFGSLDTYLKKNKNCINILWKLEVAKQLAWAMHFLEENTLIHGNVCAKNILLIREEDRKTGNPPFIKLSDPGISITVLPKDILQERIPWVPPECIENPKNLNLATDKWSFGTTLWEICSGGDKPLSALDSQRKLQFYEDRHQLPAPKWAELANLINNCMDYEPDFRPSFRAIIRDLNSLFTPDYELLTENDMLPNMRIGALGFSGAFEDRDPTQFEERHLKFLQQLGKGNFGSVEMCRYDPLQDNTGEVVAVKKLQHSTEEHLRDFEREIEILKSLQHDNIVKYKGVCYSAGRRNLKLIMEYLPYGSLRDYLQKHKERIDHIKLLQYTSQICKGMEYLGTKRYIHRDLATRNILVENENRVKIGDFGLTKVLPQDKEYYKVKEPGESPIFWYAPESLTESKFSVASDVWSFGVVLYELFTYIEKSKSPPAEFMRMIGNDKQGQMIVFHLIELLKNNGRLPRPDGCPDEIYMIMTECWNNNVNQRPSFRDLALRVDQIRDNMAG
T1 sequence (Q9UM73 19-1620): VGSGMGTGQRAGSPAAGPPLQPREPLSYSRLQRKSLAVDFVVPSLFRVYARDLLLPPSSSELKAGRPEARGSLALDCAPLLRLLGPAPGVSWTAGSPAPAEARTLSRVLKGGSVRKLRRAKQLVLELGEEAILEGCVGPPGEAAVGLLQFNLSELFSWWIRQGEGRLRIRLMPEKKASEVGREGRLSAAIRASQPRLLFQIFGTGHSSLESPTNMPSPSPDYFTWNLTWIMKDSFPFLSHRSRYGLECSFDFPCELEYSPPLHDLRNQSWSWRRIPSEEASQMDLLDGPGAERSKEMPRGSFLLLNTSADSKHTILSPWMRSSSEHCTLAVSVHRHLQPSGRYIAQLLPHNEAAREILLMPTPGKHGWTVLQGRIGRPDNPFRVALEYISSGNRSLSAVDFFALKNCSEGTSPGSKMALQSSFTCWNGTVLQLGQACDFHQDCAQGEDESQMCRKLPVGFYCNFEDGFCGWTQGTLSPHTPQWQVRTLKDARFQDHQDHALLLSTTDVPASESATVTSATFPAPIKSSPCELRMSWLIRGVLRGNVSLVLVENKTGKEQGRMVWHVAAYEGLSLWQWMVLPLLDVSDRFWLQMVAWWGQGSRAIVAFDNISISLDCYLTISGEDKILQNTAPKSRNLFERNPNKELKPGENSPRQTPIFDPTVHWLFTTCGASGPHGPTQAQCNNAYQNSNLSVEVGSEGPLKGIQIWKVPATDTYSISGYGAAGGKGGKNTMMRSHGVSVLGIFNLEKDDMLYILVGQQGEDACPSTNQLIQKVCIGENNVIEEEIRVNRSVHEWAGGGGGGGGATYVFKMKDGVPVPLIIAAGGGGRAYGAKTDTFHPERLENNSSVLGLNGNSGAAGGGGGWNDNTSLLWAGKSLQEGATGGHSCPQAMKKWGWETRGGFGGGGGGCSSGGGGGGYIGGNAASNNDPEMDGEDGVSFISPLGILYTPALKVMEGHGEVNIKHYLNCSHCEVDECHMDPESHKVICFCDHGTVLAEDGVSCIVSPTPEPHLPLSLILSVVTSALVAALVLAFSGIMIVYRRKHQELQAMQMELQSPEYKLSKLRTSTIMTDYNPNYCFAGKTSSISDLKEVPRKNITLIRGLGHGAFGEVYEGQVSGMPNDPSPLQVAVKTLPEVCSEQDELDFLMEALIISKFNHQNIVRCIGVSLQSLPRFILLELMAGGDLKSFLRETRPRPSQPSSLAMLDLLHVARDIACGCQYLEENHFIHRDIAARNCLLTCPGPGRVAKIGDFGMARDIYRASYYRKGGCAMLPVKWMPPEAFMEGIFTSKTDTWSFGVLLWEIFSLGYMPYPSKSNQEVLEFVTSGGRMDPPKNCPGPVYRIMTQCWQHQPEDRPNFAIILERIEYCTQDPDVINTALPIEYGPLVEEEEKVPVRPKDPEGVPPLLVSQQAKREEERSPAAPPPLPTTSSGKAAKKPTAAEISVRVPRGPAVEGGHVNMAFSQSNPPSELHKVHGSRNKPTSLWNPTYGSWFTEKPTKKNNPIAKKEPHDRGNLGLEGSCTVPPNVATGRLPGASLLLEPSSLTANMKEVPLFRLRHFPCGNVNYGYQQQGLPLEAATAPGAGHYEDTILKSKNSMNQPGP

SMILES | IC50 [1] [nM] | IC50 [2] [nM]
CC(C)(C)NS(=O)(=O)c1cccc(-c2ccc3cnc(Nc4ccc5nc(CN6CCN(CCO)CC6)[nH]c5c4)nn23)c1 [Example 1520, N-tert-Butyl-3-(2-{2-[4-(2-hydroxy-ethyl)-piperazin-1-ylmethyl]-3H-benzimidazol-5-ylamino}-pyrrolo[2,1-f][1,2,4]triazin-7-yl)-benzenesulfonamide] | 100 to 1000 | < 100
CN(c1ccccc1-c1ccc2cnc(Nc3ccc4nc(CN5CCN(CCO)CC5)[nH]c4c3)nn12)S(C)(=O)=O [Example 1521, N-[2-(2-{2-[4-(2-Hydroxy-ethyl)-piperazin-1-ylmethyl]-3H-benzimidazol-5-ylamino}-pyrrolo[2,1-f][1,2,4]triazin-7-yl)-phenyl]-N-methyl-methanesulfonamide] | 100 to 1000 | < 100
COc1ccccc1-c1ccc2cnc(Nc3ccc4nc(CN5CCN(CCO)CC5)[nH]c4c3)nn12 [Example 1522, 2-(4-{6-[7-(2-Methoxy-phenyl)-pyrrolo[2,1-f][1,2,4]triazin-2-ylamino]-1H-benzimidazol-2-ylmethyl}-piperazin-1-yl)-ethanol] | 100 to 1000 | < 100
COc1ccc(-c2ccc3cnc(Nc4ccc5nc(CN6CCN(CCO)CC6)[nH]c5c4)nn23)cn1 [Example 1523, 2-(4-{6-[7-(6-Methoxy-pyridin-3-yl)-pyrrolo[2,1-f][1,2,4]triazin-2-ylamino]-1H-benzimidazol-2-ylmethyl}-piperazin-1-yl)-ethanol] | 1000 to 10000 | < 100
CN1CCN(Cc2nc3ccc(Nc4ncc5ccc(-c6cccc(S(=O)(=O)NC(C)(C)C)c6)n5n4)cc3[nH]2)CC1 [Example 1524, N-tert-Butyl-3-{2-[2-(4-methyl-piperazin-1-ylmethyl)-3H-benzimidazol-5-ylamino]-pyrrolo[2,1-f][1,2,4]triazin-7-yl}-benzenesulfonamide] | 100 to 1000 | < 100
CN1CCN(Cc2nc3ccc(Nc4ncc5ccc(-c6ccccc6N(C)S(C)(=O)=O)n5n4)cc3[nH]2)CC1 [Example 1525, N-Methyl-N-(2-{2-[2-(4-methyl-piperazin-1-ylmethyl)-3H-benzimidazol-5-ylamino]-pyrrolo[2,1-f][1,2,4]triazin-7-yl}-phenyl)-methanesulfonamide] | 100 to 1000 | < 100
COc1ccccc1-c1ccc2cnc(Nc3ccc4nc(CN5CCN(C)CC5)[nH]c4c3)nn12 [Example 1526, [7-(2-Methoxy-phenyl)-pyrrolo[2,1-f][1,2,4]triazin-2-yl]-[2-(4-methyl-piperazin-1-ylmethyl)-3H-benzimidazol-5-yl]-amine] | 100 to 1000 | < 100
COc1ccc(-c2ccc3cnc(Nc4ccc5nc(CN6CCN(C)CC6)[nH]c5c4)nn23)cn1 [Example 1527, [7-(6-Methoxy-pyridin-3-yl)-pyrrolo[2,1-f][1,2,4]triazin-2-yl]-[2-(4-methyl-piperazin-1-ylmethyl)-3H-benzimidazol-5-yl]-amine] | 100 to 1000 | < 100
CC(C)(C)NS(=O)(=O)c1cccc(-c2ccc3cnc(Nc4ccc(C5CNCCN5)cc4)nn23)c1 (stereo not drawn) [Example 1528, N-tert-Butyl-3-[2-(4-piperazin-2-yl-phenylamino)-pyrrolo[2,1-f][1,2,4]triazin-7-yl]-benzenesulfonamide] | 100 to 1000 | < 100
COc1ccc(-c2ccc3cnc(Nc4ccc(C5CNCCN5)cc4)nn23)cn1 (stereo not drawn) [Example 1529, [7-(6-Methoxy-pyridin-3-yl)-pyrrolo[2,1-f][1,2,4]triazin-2-yl]-(4-piperazin-2-yl-phenyl)-amine] | 100 to 1000 | < 100
COc1ccc(-c2ccc3cnc(Nc4ccc(C5CN(C)CCN5C)cc4)nn23)cn1 (stereo not drawn) [Example 1530, [4-(1,4-Dimethyl-piperazin-2-yl)-phenyl]-[7-(6-methoxy-pyridin-3-yl)-pyrrolo[2,1-f][1,2,4]triazin-2-yl]-amine] | 100 to 1000 | < 100
COc1cccnc1-c1ccc2cnc(Nc3ccc(C4CCN(CC(N)=O)CC4)cc3)nn12 [Example 1531, 2-(4-{4-[7-(3-Methoxy-pyridin-2-yl)-pyrrolo[2,1-f][1,2,4]triazin-2-ylamino]-phenyl}-piperidin-1-yl)-acetamide] | 1000 to 10000 | < 100
COc1cc(C2CCN(CC(N)=O)CC2)ccc1Nc1ncc2ccc(-c3ncccc3OC)n2n1 [Example 1532, 2-(4-{3-Methoxy-4-[7-(3-methoxy-pyridin-2-yl)-pyrrolo[2,1-f][1,2,4]triazin-2-ylamino]-phenyl}-piperidin-1-yl)-acetamide] | 1000 to 10000 | 1000 to 10000
COc1cc(C2CCN(CC(N)=O)CC2)ccc1Nc1ncc2ccc(-c3cccc4c3OC(F)(F)O4)n2n1 [Example 1533, 2-(4-{4-[7-(2,2-Difluoro-benzo[1,3]dioxol-4-yl)-pyrrolo[2,1-f][1,2,4]triazin-2-ylamino]-3-methoxy-phenyl}-piperidin-1-yl)-acetamide] | < 100 | 1000 to 10000
CN1CCN(c2cccc(Nc3ncc4ccc(-c5cccc6c5OC(F)(F)O6)n4n3)c2)CC1 [Example 1534, [7-(2,2-Difluoro-benzo[1,3]dioxol-4-yl)-pyrrolo[2,1-f][1,2,4]triazin-2-yl]-[3-(4-methyl-piperazin-1-yl)-phenyl]-amine] | 100 to 1000 | < 100
FC1(F)Oc2cccc(-c3ccc4cnc(Nc5ccc6c(c5)CCC(N5CCOCC5)CC6)nn34)c2O1 (stereo not drawn) [Example 1535, [7-(2,2-Difluoro-benzo[1,3]dioxol-4-yl)-pyrrolo[2,1-f][1,2,4]triazin-2-yl]-(7-morpholin-4-yl-6,7,8,9-tetrahydro-5H-benzocyclohepten-2-yl)-amine] | 1000 to 10000 | < 100
FC1(F)Oc2cccc(-c3ccc4cnc(Nc5ccc6[nH]c(CN7CCOCC7)nc6c5)nn34)c2O1 [Example 1536, [7-(2,2-Difluoro-benzo[1,3]dioxol-4-yl)-pyrrolo[2,1-f][1,2,4]triazin-2-yl]-(2-morpholin-4-ylmethyl-1H-benzoimidazol-5-yl)-amine] | 100 to 1000 | < 100
CS(=O)(=O)c1cccc(-c2ccc3cnc(Nc4ccc5[nH]c(CN6CCOCC6)nc5c4)nn23)c1 [Example 1537, [7-(3-Methanesulfonyl-phenyl)-pyrrolo[2,1-f][1,2,4]triazin-2-yl]-(2-morpholin-4-ylmethyl-1H-benzimidazol-5-yl)-amine] | 1000 to 10000 | < 100
CN1CCN(Cc2nc3cc(Nc4ncc5ccc(-c6cccc(S(C)(=O)=O)c6)n5n4)ccc3[nH]2)CC1 [Example 1538, [7-(3-Methanesulfonyl-phenyl)-pyrrolo[2,1-f][1,2,4]triazin-2-yl]-[2-(4-methyl-piperazin-1-ylmethyl)-1H-benzimidazol-5-yl]-amine] | 100 to 1000 | < 100
CS(=O)(=O)c1cccc(-c2ccc3cnc(Nc4ccc5[nH]c(CN6CCN(CCO)CC6)nc5c4)nn23)c1 [Example 1539, 2-(4-{5-[7-(3-Methanesulfonyl-phenyl)-pyrrolo[2,1-f][1,2,4]triazin-2-ylamino]-1H-benzimidazol-2-ylmethyl}-piperazin-1-yl)-ethanol] | 1000 to 10000 | < 100
NC(=O)CN1CCC(c2ccc(Nc3ncc4ccc(-c5cccc6c5OC(F)(F)O6)n4n3)cc2)CC1 [Example 1540, 2-(4-{4-[7-(2,2-Difluoro-benzo[1,3]dioxol-4-yl)-pyrrolo[2,1-f][1,2,4]triazin-2-ylamino]-phenyl}-piperidin-1-yl)-acetamide] | 100 to 1000 | < 100
CS(=O)(=O)c1ccc(-c2ccc3cnc(Nc4ccc5[nH]c(CN6CCOCC6)nc5c4)nn23)cc1 [Example 1541, [7-(4-Methanesulfonyl-phenyl)-pyrrolo[2,1-f][1,2,4]triazin-2-yl]-(2-morpholin-4-ylmethyl-1H-benzimidazol-5-yl)-amine] | > 10000 | < 100
CN1CCN(Cc2nc3cc(Nc4ncc5ccc(-c6ccc(S(C)(=O)=O)cc6)n5n4)ccc3[nH]2)CC1 [Example 1542, [7-(4-Methanesulfonyl-phenyl)-pyrrolo[2,1-f][1,2,4]triazin-2-yl]-[2-(4-methyl-piperazin-1-ylmethyl)-1H-benzimidazol-5-yl]-amine] | 1000 to 10000 | < 100
CS(=O)(=O)c1ccc(-c2ccc3cnc(Nc4ccc5[nH]c(CN6CCN(CCO)CC6)nc5c4)nn23)cc1 [Example 1543, 2-(4-{5-[7-(4-Methanesulfonyl-phenyl)-pyrrolo[2,1-f][1,2,4]triazin-2-ylamino]-1H-benzimidazol-2-ylmethyl}-piperazin-1-yl)-ethanol] | 1000 to 10000 | < 100
CC(C)(C)NS(=O)(=O)c1cccc(-c2ccc3cnc(Nc4ccc(C5(C#N)CCN(CC(N)=O)CC5)cc4)nn23)c1 [Example 1544, 2-(4-{4-[7-(3-tert-Butylsulfamoyl-phenyl)-pyrrolo[2,1-f][1,2,4]triazin-2-ylamino]-phenyl}-4-cyano-piperidin-1-yl)-acetamide] | 100 to 1000 | < 100
COc1ccc(-c2ccc3cnc(Nc4ccc(C5(C#N)CCN(CC(N)=O)CC5)cc4)nn23)cn1 [Example 1545, 2-(4-Cyano-4-{4-[7-(6-methoxy-pyridin-3-yl)-pyrrolo[2,1-f][1,2,4]triazin-2-ylamino]-phenyl}-piperidin-1-yl)-acetamide] | 100 to 1000 | < 100
CS(=O)(=O)c1cccc(-c2ccc3cnc(Nc4ccc(C5(C#N)CCN(CC(N)=O)CC5)cc4)nn23)c1 [Example 1546, 2-(4-Cyano-4-{4-[7-(3-methanesulfonyl-phenyl)-pyrrolo[2,1-f][1,2,4]triazin-2-ylamino]-phenyl}-piperidin-1-yl)-acetamide] | 1000 to 10000 | < 100

From patent US8471005B2 (Cephalon, Inc., priority 2008, dated 2013)
